In patent publication US20240228504A1, “SUBSTITUTED TRICYCLIC AMIDES, ANALOGUES THEREOF, AND METHODS USING SAME” (Arbutus Biopharma Corporation, priority 2020, published 2024):
Where two headings read alike, the source gives them in different places.

Test system: HBV rcDNA in HepDE19 cells
Test: HepDE19 assay with bDNA quantitation of HBV rcDNA
Format: cell-based, hepatitis B virus
Conditions: inhibition of rcDNA formation, bDNA quantitation, read-out: DE-19bDNA EC50

Compound | EC50 (Hepatitis B virus, HepDE19, HepDE19 assay) | EC50 (HepDE19 assay)
CN(C(=O)C1Cc2ccccc2C1)[C@@H]1COCc2[nH]c(=O)c3cc(F)c(F)cc3c21 [Compound 195, (S)-N-(8,9-Difluoro-6-oxo-1,4,5,6-tetrahydro-2H-pyrano[3,4-c]isoquinolin-1-yl)-N-methyl-2,3-dihydro-1H-indene-2-carboxamide] | 0.15 µM | 
CN(C(=O)c1ccc2ncsc2c1)C1COCc2[nH]c(=O)c3cc(F)ccc3c21 (single isomer, unassigned) [Compound 446, N-(8-fluoro-6-oxo-1,4,5,6-tetrahydro-2H-pyrano[3,4-c]isoquinolin-1-yl)-N-methylbenzo[d]thiazole-6-carboxamide] |  | 16 µM
